Data taken from US6420558B1, “Aminopiperidine derivates as integrin αvβ3 antagonists” (Meiji Seika Kaisha, Ltd., priority 1998, dated 2002).

How the values were obtained:
[1] = target: T1, integrin αvβ3 (vitronectin receptor purified from the human placenta) (Homo sapiens, UniProt P05106+P06756); assay: αvβ3 binding assay (vitronectin-vitronectin receptor binding assay); details: vitronectin binding to human placenta vitronectin receptor; read-out: integrin αvβ3 antagonistic activity, IC50 value
T1 construct: a vitronectin receptor (protein content: 118 μg/ml) purified from the human placenta; from tissue; host or cells: human placenta
Experimental: Integrin αvβ3 antagonistic activity was measured for the compounds according to the present invention in a vitronectin-vitronectin receptor binding assay system in accordance with the method of Kouns et al. (W. C. Kouns, D. Kirchhofer, P. Hadvary, A. Edenhofer, T. Weller, G. Pfenninger, H. R. Baumgartner, L. K. Jennings and B. Steiner, Blood, 80, 2539-2547 (1992)).
Specifically, a vitronectin receptor (protein content: 118 μg/ml) purified from the human placenta in accordance with the method of Pytela et al. (R. Pytela, M. D. Pierschbacher, S. Argraves, S. Suzuki, and E. Ruoslahti, Method in Enzymology, 144, 475-489 (1987)) was diluted 50 times with TBS (20 mM Tris-HCl, 150 mM NaCl, 1 mM CaCl2, 1 mM MgCl2, pH 7.4), and distributed and coated on wells (50 μl/well) of a plate (Maxisorp, Nunc, 96 well Immuno Plate). The plate was then allowed to stand at 4° C. for 1 day, washed twice with TBS (200 μl/well), and then subjected to blocking with TBS (150 μl/well) containing 1% bovine serum albumin (SIGMA) at 4° C. overnight. After washing twice with TBS (200 μl/well), 50 μl of vitronectin (CALBIOCHEM) adjusted to 0.2 μg/ml by the addition of TBS (TBS-Tween) containing 0.01% Tween-20 was mixed with 50 μl of each test compound adjusted to each concentration in wells, and a reaction was allowed to proceed at room temperature for 4 hr. After the completion of the reaction, the wells were washed five times with TBS-Tween. A solution prepared by diluting anti-vitronectin rabbit antiserum (CHEMICON) 500 times with TBS-Tween was added as a primary antibody in an amount of 50 μl/well, and a reaction was allowed to proceed at room temperature for 1.5 hr. After washing five times with 200 μl/well of TBS-Tween, a peroxidase (POD)-labeled anti-rabbit IgG antibody solution (CAPPEL) diluted 500 times with TBS-Tween was added as a secondary antibody in an amount of 50 μl/well, and a reaction was allowed to proceed at room temperature for 1.5 hr. After washing five times with TBS-Tween (200 μl/well), ABTS (2,2′-azino-bis(3-ethylbenzthiazoline-6-sulfonic acid), SIGMA) was adjusted to 1 mg/ml by the addition of a ten-fold diluted POD-buffer (ZYMED), and added in an amount of 50 μl/well, and a reaction was allowed to proceed for 5 to 10 min. A 0.1 M citric acid buffer (pH 4.3) containing 0.05% NaN3 was added in an amount of 50 μl/well to stop the reaction, followed by the measurement of the absorbance at 415 nm with a microplate reader (MTP 32, Corona Electric) (reference: 675 nm). The total binding was defined as the absorbance after a reaction using 50 μl of TBS-Tween instead of the test compound, and the non-specific binding (100% inhibition) was defined as the absorbance after a reaction using 50 μl of TBS-Tween containing 2×10^−3 M RGDS. The inhibition was calculated by the following equation: [formula]
IC50 was determined from a primary regression line of the logarithm of each concentration of the test compound and the logarithm of (100−inhibition)/inhibition.

GP IIb/IIIa = GP IIb/IIIa (Homo sapiens, UniProt P05106+P08514); assay: GP IIb/IIIa antagonistic activity (method of Pharmacological Test 2 in WO 94/21599); format: binding
Experimental: GP IIb/IIIa Antagonistic Activity and Human Platelet Aggregation Inhibitory Activity
GP IIb/IIIa antagonistic activity was measured for the compounds according to the present invention. The measurement of the GP IIb/IIIa antagonistic activity was carried out according to the method described in Pharmacological Test 2 in WO 94/21599.

[2] = system: human vascular smooth muscle cells adhering to immobilized human vitronectin; assay: Inhibitory activity against adhesion of human vascular smooth muscle cells to vitronectin; format: cell-based; details: 1.5 h; human vitronectin-coated plate, 90 min
Experimental: Inhibitory Activity Against Adhesion of Human Vascular Smooth Muscle Cells to Vitronectin
The adhesion of human vascular smooth muscle cells =+to immobilized human vitronectin was measured in accordance with the method of Liaw et al. (Liaw L, Almeida M, Hart C E, Schwartz S M, and Giachelli C M, Circulation Research, 74 (2), 214-224 (1994)).
A Dulbecco's phosphate buffer (Dulbecco's PBS(−), Nissui Pharmaceutical Co., Ltd.) solution of human plasma-derived vitronectin (CALBIOCHEM) adjusted to a concentration of 4 μg/ml was first added to wells (50 μl/well) of a microplate (Maxisorp, Nunc), and a reaction for immobilization was allowed to proceed at 4° C. overnight. After washing twice with 150 μl of Dulbecco's phosphate buffer, a Dulbecco's phosphate buffer containing 10 mg/ml of bovine serum albumin (SIGMA) was added, followed by blocking at 37° C. for one hr. The assay plate was washed twice with 150 μl of Dulbecco's phosphate buffer.
Separately, human vascular smooth muscle cells cultivated at 37° C. under 5% carbon dioxide in a medium for vascular smooth muscle cells (Clonetics) were separated using a Dulbecco's phosphate buffer containing trypsin-EDTA (GIBCO BRL), washed with Dulbecco's phosphate buffer, and then suspended in a Dulbecco's modified Eagle's basal medium (Nissui Pharmaceutical Co., Ltd.) containing 0.1% bovine serum albumin to a concentration of 5×10^5/ml.
Next, 50 μl of a Dulbecco's modified Eagle's basal medium containing 10 mg/ml of bovine serum albumin with a medicament added thereto was added to the wells of the human vitronectin-coated assay microplate, followed by pre-cultivation under 5% carbon dioxide at 37° C. for 10 min. Thereafter, 50 μl of the medium with human vascular smooth muscle cells suspended therein was added thereto, and the plate was thoroughly stirred. A reaction was allowed to proceed under 5% carbon dioxide at 37° C. for 90 min. The reaction solution containing non-adherent cells were then removed, followed by washing three times with Dulbecco's phosphate buffer. For the adhered cells, 100 μl of a Dulbecco's phosphate buffer containing 4% paraformaldehyde (Wako Pure Chemical Industries, Ltd.) was added, and immobilization was allowed to proceed at room temperature for 10 min. Next, 100 μl of a Dulbecco's phosphate buffer containing 0.5% Toluidine Blue (Croma) and 4% paraformaldehyde was added, and staining was allowed to proceed at room temperature for 5 min, followed by thorough washing with distilled water. The inside of the wells was then air-dried, and a 1% aqueous sodium dodecylsulfate solution was then added to perform cytolysis. The absorbance of the microplate thus obtained was measured at 595 nm. […] The inhibition was calculated by the following equation. IC50 was determined from a primary regression line of the logarithm of each concentration of the test compound and the logarithm of (100−inhibition)/inhibition. [formula]

Chain of GP IIb/IIIa (P08514 32-887 limits assumed): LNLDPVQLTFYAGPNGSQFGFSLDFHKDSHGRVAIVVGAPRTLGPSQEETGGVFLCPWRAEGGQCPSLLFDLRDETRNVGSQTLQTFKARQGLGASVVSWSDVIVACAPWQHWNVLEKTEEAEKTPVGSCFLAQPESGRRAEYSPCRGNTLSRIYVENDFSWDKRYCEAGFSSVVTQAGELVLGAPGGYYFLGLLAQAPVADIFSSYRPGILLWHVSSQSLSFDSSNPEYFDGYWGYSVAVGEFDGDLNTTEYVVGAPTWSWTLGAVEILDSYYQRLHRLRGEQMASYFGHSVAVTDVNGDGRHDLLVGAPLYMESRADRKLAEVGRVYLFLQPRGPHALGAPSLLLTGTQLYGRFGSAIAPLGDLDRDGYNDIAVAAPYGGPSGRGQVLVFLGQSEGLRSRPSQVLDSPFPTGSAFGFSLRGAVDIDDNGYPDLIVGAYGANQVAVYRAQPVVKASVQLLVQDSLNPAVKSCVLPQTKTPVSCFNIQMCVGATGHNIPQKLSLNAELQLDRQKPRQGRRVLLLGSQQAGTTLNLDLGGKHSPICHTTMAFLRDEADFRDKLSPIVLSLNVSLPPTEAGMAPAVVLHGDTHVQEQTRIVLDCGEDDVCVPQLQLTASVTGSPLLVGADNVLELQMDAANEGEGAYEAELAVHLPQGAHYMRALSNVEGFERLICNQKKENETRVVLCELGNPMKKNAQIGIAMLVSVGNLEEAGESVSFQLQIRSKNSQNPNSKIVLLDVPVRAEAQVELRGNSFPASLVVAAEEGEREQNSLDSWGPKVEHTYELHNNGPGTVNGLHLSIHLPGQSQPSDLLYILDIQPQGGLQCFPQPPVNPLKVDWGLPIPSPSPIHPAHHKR
Chain of GP IIb/IIIa (P08514 891-1039 limits assumed): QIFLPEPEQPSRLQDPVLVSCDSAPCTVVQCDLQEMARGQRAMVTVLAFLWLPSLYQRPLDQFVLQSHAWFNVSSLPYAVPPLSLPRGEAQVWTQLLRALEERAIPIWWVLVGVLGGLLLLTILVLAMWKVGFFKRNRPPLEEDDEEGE
Chain of GP IIb/IIIa (P05106 27-788): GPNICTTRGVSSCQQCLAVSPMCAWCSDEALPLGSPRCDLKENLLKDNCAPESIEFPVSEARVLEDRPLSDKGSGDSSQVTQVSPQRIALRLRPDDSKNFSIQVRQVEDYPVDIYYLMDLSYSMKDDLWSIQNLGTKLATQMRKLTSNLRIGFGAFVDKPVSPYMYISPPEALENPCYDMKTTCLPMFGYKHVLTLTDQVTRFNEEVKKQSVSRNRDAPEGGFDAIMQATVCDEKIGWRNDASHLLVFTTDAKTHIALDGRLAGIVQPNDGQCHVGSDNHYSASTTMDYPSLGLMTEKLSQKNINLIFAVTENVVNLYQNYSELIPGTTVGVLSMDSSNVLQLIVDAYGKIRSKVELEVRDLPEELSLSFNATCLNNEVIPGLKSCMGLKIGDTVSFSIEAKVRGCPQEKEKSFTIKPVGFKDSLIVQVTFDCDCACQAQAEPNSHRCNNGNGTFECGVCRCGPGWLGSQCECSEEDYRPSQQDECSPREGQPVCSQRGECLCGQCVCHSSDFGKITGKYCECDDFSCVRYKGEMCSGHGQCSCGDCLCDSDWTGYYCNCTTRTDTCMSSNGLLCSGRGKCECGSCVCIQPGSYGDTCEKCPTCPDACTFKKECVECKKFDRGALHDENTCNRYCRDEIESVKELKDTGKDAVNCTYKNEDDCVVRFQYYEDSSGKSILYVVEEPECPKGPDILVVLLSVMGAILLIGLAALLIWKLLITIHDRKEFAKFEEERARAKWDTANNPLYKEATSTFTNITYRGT
T1 sequence (P06756 31-889 limits assumed): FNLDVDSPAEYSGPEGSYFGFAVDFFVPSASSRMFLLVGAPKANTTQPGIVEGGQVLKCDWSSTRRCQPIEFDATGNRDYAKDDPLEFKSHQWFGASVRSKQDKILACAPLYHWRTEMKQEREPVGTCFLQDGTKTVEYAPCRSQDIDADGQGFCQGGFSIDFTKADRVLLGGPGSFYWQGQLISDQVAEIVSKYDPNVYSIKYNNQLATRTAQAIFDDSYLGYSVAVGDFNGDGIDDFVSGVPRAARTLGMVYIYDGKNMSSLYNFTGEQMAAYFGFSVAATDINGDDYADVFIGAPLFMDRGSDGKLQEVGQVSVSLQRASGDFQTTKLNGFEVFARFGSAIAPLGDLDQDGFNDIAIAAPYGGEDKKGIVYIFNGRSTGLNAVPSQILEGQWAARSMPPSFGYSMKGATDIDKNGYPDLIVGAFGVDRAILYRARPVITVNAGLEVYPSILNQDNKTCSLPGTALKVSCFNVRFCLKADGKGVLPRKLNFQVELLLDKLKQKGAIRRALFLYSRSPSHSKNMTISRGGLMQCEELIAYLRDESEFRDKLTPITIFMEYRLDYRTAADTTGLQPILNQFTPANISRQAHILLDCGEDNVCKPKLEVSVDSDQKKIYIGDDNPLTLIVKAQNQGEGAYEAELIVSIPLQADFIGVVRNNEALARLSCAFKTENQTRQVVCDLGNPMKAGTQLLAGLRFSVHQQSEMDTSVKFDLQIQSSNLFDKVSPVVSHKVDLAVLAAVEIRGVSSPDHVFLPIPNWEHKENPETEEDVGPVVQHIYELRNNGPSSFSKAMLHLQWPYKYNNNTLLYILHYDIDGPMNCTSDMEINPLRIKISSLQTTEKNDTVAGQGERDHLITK
T1 sequence (P06756 891-1048 limits assumed): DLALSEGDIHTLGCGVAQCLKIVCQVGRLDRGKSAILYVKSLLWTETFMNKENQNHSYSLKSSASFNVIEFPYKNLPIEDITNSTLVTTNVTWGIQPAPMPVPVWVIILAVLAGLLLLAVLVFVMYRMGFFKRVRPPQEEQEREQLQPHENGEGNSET
T1 sequence (P05106 27-788): as the sequence (P05106 27-788) above

Row | Structure (SMILES) | IC50 [1] [nM] | IC50 (GP IIb/IIIa) [nM] | IC50 [2] [nM]
1 | Nc1ccc(S(=O)(=O)N[C@@H](CNC(=O)c2ccc(N3CCC(Nc4nc5ccccc5[nH]4)CC3)cc2)C(=O)O)cc1 [Example 36, (2S)-(4-Aminobenzenesulfonyl)amino-3-[4-{4-(1H-benzimidazol-2-ylamino)piperidin-1-yl}benzoylamino]-propionic acid] | ≤ 1 | ≤ 1 | –
2 | O=C(NC[C@H](NS(=O)(=O)c1ccc(O)cc1)C(=O)O)c1ccc(N2CCC(NC3=NCCCN3)CC2)c(F)c1 [Example 75, 3-[3-Fluoro-4-{4-(1,4,5,6-tetrahydropyrimidin-2-ylamino)piperidin-1-yl}benzoyl-amino]-(2S)-{(4-hydroxybenzenesulfonyl)amino}propionic acid] | ≤ 1 | ≤ 1 | ≤ 70
3 | O=C(NC[C@H](NS(=O)(=O)c1ccccc1)C(=O)O)c1ccc(N2CCC(Nc3nc4ncccc4[nH]3)CC2)cc1 [Example 38, (2S)-Benzenesulfonylamino-3-[4-[4-{(1H-imidazo[4,5-b]pyridin-2-yl)amino}piperidin-1-yl]benzoyl-amino]propionic acid] | ≤ 1 | ≤ 1 | –
4 | O=C(NC[C@H](NS(=O)(=O)c1ccc([N+](=O)[O-])cc1)C(=O)O)c1ccc(N2CCC(Nc3nc4ccccc4[nH]3)CC2)cc1 [Example 35, 3-[4-{4-(1H-Benzimidazol-2-ylamino)piperidin-1-yl}benzoylamino]-(2S)-{(4-nitro-benzenesulfonyl)amino}propionic acid] | ≤ 1 | ≤ 1 | ≤ 70
5 | COc1cc(C(=O)NC[C@H](NS(=O)(=O)c2ccccc2)C(=O)O)ccc1N1CCC(NC2=NCCCN2)CC1 [Example 93, (2S)-Benzenesulfonylamino-3-[3-methoxy-4-{4-(1,4,5,6tetrahydropyrimidin-2-ylamino)piperidin-1-yl}-benzoylamino]propionic acid] | ≤ 1 | ≤ 1 | ≤ 70
6 | O=C(NC[C@H](NS(=O)(=O)c1ccccc1)C(=O)O)c1ccc(N2CCC(N=C3NCCCN3)CC2)c(O)c1 [Example 95, (2S)-Benzenesulfonylamino-3-[3-hydroxy-4-{4-(1,4,5,6tetrahydropyrimidin-2-ylamino)piperidin-1-yl}-benzoylamino]propionic acid] | ≤ 1 | ≤ 1 | –
7 | COc1ccc(S(=O)(=O)N[C@@H](CNC(=O)c2ccc(N3CCC(NC4=NCCCN4)CC3)c(F)c2)C(=O)O)cc1 [Example 73, 3-[3-Fluoro-4-{4-(1,4,5,6-tetrahydropyrimidin-2-ylamino)piperidin-1-yl}benzoyl-amino]-(2S)-{(4-methoxybenzenesulfonyl)amino}propionic acid] | ≤ 1 | ≤ 1 | –

Next, values leading:

Row | IC50 [1] [nM] | IC50 (GP IIb/IIIa) [nM] | IC50 [2] [nM] | Structure (SMILES)
8 | ≤ 1 | ≤ 1 | ≤ 70 | O=C(NC[C@H](NS(=O)(=O)c1ccccc1)C(=O)O)c1ccc(N2CCC(NC3=NCCCN3)CC2)c(F)c1F [Example 57, (2S)-Benzenesulfonylamino-3-[2,3-difluoro-4-{4-(1,4,5,6-tetrahydropyrimidin-2-ylamino)piperidin-1yl}benzoylamino]propionic acid]
9 | ≤ 1 | ≤ 1 | – | Cc1cc(C)c(S(=O)(=O)N[C@@H](CNC(=O)c2ccc(N3CCC(Nc4nc5ccccc5[nH]4)CC3)cc2)C(=O)O)c(C)c1 [Example 31, 3-[4-{4-(1H-Benzimidazol-2-ylamino)piperidin-1-yl}benzoylamino]-(2S)-{(2,4,6-trimethylbenzenesulfonyl)amino}propionic acid]
10 | ≤ 1 | ≤ 1 | – | O=C(O)c1ccc(S(=O)(=O)N[C@@H](CNC(=O)c2ccc(N3CCC(N=C4NCCCN4)CC3)c(F)c2)C(=O)O)cc1 [Example 78, (2S)-(4-Carboxybenzenesulfonyl)amino-3-[3-fluoro-4-{4-(1.4.5.6-tetrahydropyrimidin-2-ylamino)-piperidin-1-yl}benzoylamino]propionic acid]
11 | ≤ 1 | ≤ 1 | – | O=C(NC[C@H](NS(=O)(=O)c1ccc(F)cc1)C(=O)O)c1ccc(N2CCC(Nc3nc4ccccc4[nH]3)CC2)cc1 [Example 33, 3-[4-{4-(1H-Benzimidazol-2-ylamino)piperidin-1-yl}benzoylamino]-(2S)-{(4-fluoro-benzenesulfonyl)amino}propionic acid]
